Legend:
SINV 6K = SINV 6K (Sindbis virus, UniProt P03316); experiment: UV-Vis absorption of retained compound after overnight dialysis; format: binding; conditions: 3-4x molar excess compound, 1 h on ice, pH 7.6, 0.015% DDM; EGFP negative control
SARS-CoV-2 E = SARS-CoV-2 E (Severe acute respiratory syndrome coronavirus 2, UniProt P0DTC4); format: binding
SARS-CoV-2 E, sequence (P0DTC4 whole entry): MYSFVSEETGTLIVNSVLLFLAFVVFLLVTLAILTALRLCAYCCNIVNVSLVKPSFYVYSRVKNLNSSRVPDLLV

SINV 6K, sequence (P03316 752-806): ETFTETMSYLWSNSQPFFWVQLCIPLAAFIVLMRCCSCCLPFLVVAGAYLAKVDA

CCN(c1nc(N)c(C(=O)N=C(N)N)nc1Cl)C(C)C [EIPA]
UV-Vis absorption of retained compound after overnight dialysis (SINV 6K): Both 6K (Fig. 2B) and E (Fig. 2C) proteins bind to the compounds
UV-Vis absorption of retained compound after overnight dialysis (SARS-CoV-2 E): Both 6K (Fig. 2B) and E (Fig. 2C) proteins bind to the compounds

N=C(N)NC(=O)c1nc(Cl)c(N2CCCCCC2)nc1N [HMA]
UV-Vis absorption of retained compound after overnight dialysis (SINV 6K): Both 6K (Fig. 2B) and E (Fig. 2C) proteins bind to the compounds
UV-Vis absorption of retained compound after overnight dialysis (SARS-CoV-2 E): Both 6K (Fig. 2B) and E (Fig. 2C) proteins bind to the compounds
